# According to PubChem BioAssay AID330 (DTP/NCI, 2004):
# Values joined by “and” are separate entries in the source; they are usually repeats but may differ in a detail not shown here. Equal entries are not always repeated. Toxic doses and inconclusive results are not listed.
# System: P388 leukemia ip, CD2F1 mice, survival T/C
# Experiment: NCI In Vivo Anticancer Drug Screen. Data for tumor model P388 Leukemia (intraperitoneal) in CD2F1 (CDF1) mice
# Settings: endpoint: median survival time, higher = longer survival
# In short: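 Mice carrying the transplanted tumor received test compound or vehicle. Survival was recorded in each group, and the value is the treated-group measurement divided by that of the vehicle-treated control group.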
compound,measurement,setting,value
CN(Cc1cnc2nc(N)nc(N)c2n1)c1ccc(C(=O)N[C@@H](CCC(=O)O)C(=O)O)cc1,T/C,"dose: 0.09 mg/kg/injection, schedule: Q01DX009 (ip), vehicle: sodium bicarbonate",120 % of control
same,T/C,"dose: 0.18 mg/kg/injection, schedule: Q01DX009 (ip), vehicle: sodium bicarbonate",113 % of control
same,T/C,"dose: 0.25 mg/kg/injection, schedule: Q01DX005 (ip), vehicle: sodium bicarbonate",117 % of control
same,T/C,"dose: 0.25 mg/kg/injection, schedule: Q01DX009 (ip), vehicle: sodium bicarbonate",150 % of control and 154 % of control
same,T/C,"dose: 0.32 mg/kg/injection, schedule: Q01DX009 (ip), vehicle: sodium bicarbonate",166 % of control and 168 % of control
same,T/C,"dose: 0.38 mg/kg/injection, schedule: Q01DX009 (ip), vehicle: other",163 % of control
same,T/C,"dose: 0.38 mg/kg/injection, schedule: Q01DX009 (ip), vehicle: saline",169 % of control
same,T/C,"dose: 0.38 mg/kg/injection, schedule: Q## X009 (ip), vehicle: sodium bicarbonate",154 % of control
same,T/C,"dose: 0.48 mg/kg/injection, schedule: Q01DX009 (ip), vehicle: sodium bicarbonate",168 % of control
same,T/C,"dose: 0.5 mg/kg/injection, schedule: Q01DX009 (ip), vehicle: sodium bicarbonate",176 % of control and 177 % of control
same,T/C,"dose: 0.54 mg/kg/injection, schedule: Q01DX009 (ip), vehicle: sodium bicarbonate",175 % of control and 180 % of control
same,T/C,"dose: 0.6 mg/kg/injection, schedule: Q01DX009 (ip), vehicle: clinical formulation",164 % of control
same,T/C,"dose: 0.62 mg/kg/injection, schedule: Q01DX005 (ip), vehicle: sodium bicarbonate",158 % of control
same,T/C,"dose: 0.73 mg/kg/injection, schedule: Q01DX009 (ip), vehicle: sodium bicarbonate",184 % of control
same,T/C,"dose: 0.75 mg/kg/injection, schedule: Q01DX005 (ip), vehicle: sodium bicarbonate",166 % of control
same,T/C,"dose: 0.75 mg/kg/injection, schedule: Q01DX009 (ip), vehicle: other",195 % of control
same,T/C,"dose: 0.75 mg/kg/injection, schedule: Q01DX009 (ip), vehicle: saline",200 % of control
same,T/C,"dose: 0.75 mg/kg/injection, schedule: Q01DX015 (ip), vehicle: sodium bicarbonate",186 % of control
same,T/C,"dose: 0.75 mg/kg/injection, schedule: Q## X009 (ip), vehicle: sodium bicarbonate",190 % of control
same,T/C,"dose: 0.8 mg/kg/injection, schedule: Q01DX009 (ip), vehicle: clinical formulation",164 % of control
same,T/C,"dose: 1.0 mg/kg/injection, schedule: Q01DX009 (ip), vehicle: clinical formulation",180 % of control
same,T/C,"dose: 1.0 mg/kg/injection, schedule: Q01DX009 (ip), vehicle: sodium bicarbonate",177 % of control and 194 % of control and 195 % of control
same,T/C,"dose: 1.0 mg/kg/injection, schedule: Q02DX005 (ip), vehicle: sodium bicarbonate",160 % of control
same,T/C,"dose: 1.1 mg/kg/injection, schedule: Q01DX009 (ip), vehicle: sodium bicarbonate",192 % of control
same,T/C,"dose: 1.2 mg/kg/injection, schedule: Q01DX009 (ip), vehicle: clinical formulation",189 % of control
same,T/C,"dose: 1.25 mg/kg/injection, schedule: Q01DX005 (ip), vehicle: sodium bicarbonate",182 % of control
same,T/C,"dose: 1.3 mg/kg/injection, schedule: Q01DX009 (ip), vehicle: sodium bicarbonate",196 % of control
same,T/C,"dose: 1.5 mg/kg/injection, schedule: Q01DX005 (ip), vehicle: sodium bicarbonate",182 % of control
same,T/C,"dose: 1.7 mg/kg/injection, schedule: Q01DX009 (ip), vehicle: sodium bicarbonate",106 % of control
same,T/C,"dose: 1.75 mg/kg/injection, schedule: Q01DX005 (ip), vehicle: sodium bicarbonate",182 % of control
same,T/C,"dose: 2.0 mg/kg/injection, schedule: Q01DX005 (iv), vehicle: sodium bicarbonate",161 % of control
same,T/C,"dose: 2.0 mg/kg/injection, schedule: Q02DX005 (ip), vehicle: saline",105 % of control
same,T/C,"dose: 2.0 mg/kg/injection, schedule: Q02DX005 (ip), vehicle: sodium bicarbonate",163 % of control and 192 % of control
same,T/C,"dose: 2.3 mg/kg/injection, schedule: Q04DX003 (ip), vehicle: saline",181 % of control
same,T/C,"dose: 2.5 mg/kg/injection, schedule: Q01DX005 (ip), vehicle: sodium bicarbonate",187 % of control
same,T/C,"dose: 2.5 mg/kg/injection, schedule: Q01DX006 (ip), vehicle: sodium bicarbonate",179 % of control
same,T/C,"dose: 2.5 mg/kg/injection, schedule: Q04DX003 (ip), vehicle: sodium bicarbonate",183 % of control
same,T/C,"dose: 3.0 mg/kg/injection, schedule: Q01DX006 (ip), vehicle: sodium bicarbonate",170 % of control
same,T/C,"dose: 3.0 mg/kg/injection, schedule: Q01DX015 (ip), vehicle: sodium bicarbonate",110 % of control
same,T/C,"dose: 3.0 mg/kg/injection, schedule: Q02DX005 (ip), vehicle: saline",105 % of control
same,T/C,"dose: 3.0 mg/kg/injection, schedule: Q02DX005 (ip), vehicle: sodium bicarbonate",182 % of control
same,T/C,"dose: 3.0 mg/kg/injection, schedule: Q## X009 (ip), vehicle: sodium bicarbonate",118 % of control
same,T/C,"dose: 3.13 mg/kg/injection, schedule: Q01DX001 (ip), vehicle: sodium bicarbonate",122 % of control
same,T/C,"dose: 3.5 mg/kg/injection, schedule: Q01DX006 (ip), vehicle: sodium bicarbonate",187 % of control
same,T/C,"dose: 4.0 mg/kg/injection, schedule: Q01DX005 (iv), vehicle: sodium bicarbonate",190 % of control
same,T/C,"dose: 4.32 mg/kg/injection, schedule: Q04DX003 (ip), vehicle: sodium bicarbonate",171 % of control
same,T/C,"dose: 4.5 mg/kg/injection, schedule: Q04DX003 (ip), vehicle: sodium bicarbonate",174 % of control
same,T/C,"dose: 4.6 mg/kg/injection, schedule: Q04DX003 (ip), vehicle: saline",204 % of control
same,T/C,"dose: 5.0 mg/kg/injection, schedule: Q04DX003 (ip), vehicle: sodium bicarbonate",189 % of control
same,T/C,"dose: 5.18 mg/kg/injection, schedule: Q04DX003 (ip), vehicle: sodium bicarbonate",180 % of control
same,T/C,"dose: 6.48 mg/kg/injection, schedule: Q04DX003 (ip), vehicle: sodium bicarbonate",182 % of control
same,T/C,"dose: 7.2 mg/kg/injection, schedule: Q04DX003 (ip), vehicle: sodium bicarbonate",199 % of control
same,T/C,"dose: 7.78 mg/kg/injection, schedule: Q04DX002 (ip), vehicle: sodium bicarbonate",171 % of control
same,T/C,"dose: 8.64 mg/kg/injection, schedule: Q04DX003 (ip), vehicle: sodium bicarbonate",201 % of control
same,T/C,"dose: 9.0 mg/kg/injection, schedule: Q04DX003 (ip), vehicle: sodium bicarbonate",116 % of control
same,T/C,"dose: 9.0 mg/kg/injection, schedule: Q04DX003 (iv), vehicle: sodium bicarbonate",174 % of control
same,T/C,"dose: 9.72 mg/kg/injection, schedule: Q04DX002 (ip), vehicle: sodium bicarbonate",175 % of control
same,T/C,"dose: 10.0 mg/kg/injection, schedule: Q04DX004 (ip), vehicle: sodium bicarbonate",189 % of control
same,T/C,"dose: 10.8 mg/kg/injection, schedule: Q04DX003 (ip), vehicle: sodium bicarbonate",202 % of control
same,T/C,"dose: 13.0 mg/kg/injection, schedule: Q04DX002 (ip), vehicle: sodium bicarbonate",165 % of control
same,T/C,"dose: 14.4 mg/kg/injection, schedule: Q04DX003 (ip), vehicle: sodium bicarbonate",181 % of control
same,T/C,"dose: 15.0 mg/kg/injection, schedule: Q04DX003 (ip), vehicle: sodium bicarbonate",117 % of control
same,T/C,"dose: 16.2 mg/kg/injection, schedule: Q04DX002 (ip), vehicle: sodium bicarbonate",195 % of control
same,T/C,"dose: 18.0 mg/kg/injection, schedule: Q01DX001 (ip), vehicle: sodium bicarbonate",173 % of control
same,T/C,"dose: 18.0 mg/kg/injection, schedule: Q04DX003 (ip), vehicle: sodium bicarbonate",114 % of control
same,T/C,"dose: 18.0 mg/kg/injection, schedule: Q04DX003 (iv), vehicle: sodium bicarbonate",194 % of control
same,T/C,"dose: 18.4 mg/kg/injection, schedule: Q04DX003 (ip), vehicle: saline",177 % of control
same,T/C,"dose: 20.0 mg/kg/injection, schedule: Q04DX004 (ip), vehicle: sodium bicarbonate",189 % of control
same,T/C,"dose: 21.6 mg/kg/injection, schedule: Q04DX002 (ip), vehicle: sodium bicarbonate",191 % of control
same,T/C,"dose: 25.0 mg/kg/injection, schedule: Q04DX002 (ip), vehicle: sodium bicarbonate",115 % of control
same,T/C,"dose: 25.0 mg/kg/injection, schedule: Q04DX004 (ip), vehicle: sodium bicarbonate",180 % of control
same,T/C,"dose: 27.0 mg/kg/injection, schedule: Q04DX002 (ip), vehicle: sodium bicarbonate",201 % of control
same,T/C,"dose: 33.3 mg/kg/injection, schedule: Q01DX001 (ip), vehicle: sodium bicarbonate",109 % of control
same,T/C,"dose: 36.0 mg/kg/injection, schedule: Q01DX001 (ip), vehicle: sodium bicarbonate",150 % of control
same,T/C,"dose: 36.0 mg/kg/injection, schedule: Q01DX001 (iv), vehicle: sodium bicarbonate",156 % of control
same,T/C,"dose: 36.0 mg/kg/injection, schedule: Q04DX003 (iv), vehicle: sodium bicarbonate",124 % of control
same,T/C,"dose: 40.0 mg/kg/injection, schedule: Q01DX001 (ip), vehicle: sodium bicarbonate",150 % of control
same,T/C,"dose: 42.0 mg/kg/injection, schedule: Q04DX002 (ip), vehicle: sodium bicarbonate",105 % of control
same,T/C,"dose: 45.0 mg/kg/injection, schedule: Q04DX002 (ip), vehicle: sodium bicarbonate",200 % of control
same,T/C,"dose: 50.0 mg/kg/injection, schedule: Q04DX003 (ip), vehicle: sodium bicarbonate",111 % of control
same,T/C,"dose: 72.0 mg/kg/injection, schedule: Q01DX001 (iv), vehicle: sodium bicarbonate",161 % of control
same,T/C,"dose: 100.0 mg/kg/injection, schedule: Q01DX001 (ip), vehicle: sodium bicarbonate",158 % of control and 161 % of control
same,T/C,"dose: 125.0 mg/kg/injection, schedule: Q01DX001 (ip), vehicle: sodium bicarbonate",166 % of control
same,T/C,"dose: 150.0 mg/kg/injection, schedule: Q01DX001 (ip), vehicle: sodium bicarbonate",158 % of control
same,T/C,"dose: 200.0 mg/kg/injection, schedule: Q01DX001 (ip), vehicle: sodium bicarbonate",170 % of control
same,T/C,"dose: 400.0 mg/kg/injection, schedule: Q01DX001 (ip), vehicle: sodium bicarbonate",181 % of control
